In patent US12162867B2, “Inhibitors of RNA helicase DHX9 and uses thereof” (ACCENT THERAPEUTICS, INC., priority 2022, dated 2024):
Where two headings read alike, the source gives them in different places.

What was measured:
Type in all cases: cell-based
NCI-H747 cells = assay: DHX9 cellular proliferation assay (CellTiter-Glo), NCI-H747 (CRC-MSS); settings: Homo sapiens
LS411N cells = assay: DHX9 cellular proliferation assay (CellTiter-Glo), LS411N (CRC-MSI); settings: Homo sapiens, LS-411N, read-out: LS411N (CRC-MSI-H) Antiproliferative IC50
[1] = tested on: circBRIP1 in HCT116 cells; assay: DHX9 circBRIP1 cellular target engagement SYBR Green assay (qPCR); settings: Homo sapiens, HCT-116, circBRIP1, HCT116 cells, read-out: DHX9 Cellular Target Engagement EC50
[2] = NCI-H747, NCI-H747, CRC-MSS, performed at Pharmaron, read-out: H747 (CRC-MSS) Antiproliferative IC50
[3] = LS411N, CRC-MSI-H, performed at Pharmaron
[4] = NCI-H747, NCI-H747, performed at Pharmaron, read-out: H747 (CRC-MSS) Antiproliferative IC50

CS(=O)(=O)Nc1cc(Br)cc(NC(=O)c2cc(-c3ncccc3OCc3ccccc3)cs2)c1 [Example 32]
IC50 (NCI-H747 cells; [2]): > 10 µM
IC50 (LS411N cells; [3]): 0.101 µM
EC50 ([1]; SyBr assay (marked ^+)): 0.0482 µM

CS(=O)(=O)Nc1cc(Cl)cc(NC(=O)c2cc(-c3ncccc3OCc3ccccc3)c(CO)s2)c1 [Example 216]
IC50 (NCI-H747 cells; [2]): > 10 µM
IC50 (LS411N cells; [3]): 0.0385 µM
EC50 ([1]; SyBr assay (marked ^+)): 0.0127 µM

COc1cnc(-c2csc(C(=O)Nc3cc(Cl)cc(NS(C)(=O)=O)c3)c2)nc1 [Example 340]
IC50 (NCI-H747 cells; [2]): > 10 µM
IC50 (LS411N cells; [3]): 0.118 µM
EC50 ([1]; SyBr assay (marked ^+)): 0.106 µM

COCc1cnc(-c2cc(C(=O)Nc3cc(Cl)cc(NS(C)(=O)=O)c3)cn2C)nc1 [Example 690]
IC50 (NCI-H747 cells; [4]): > 10 µM
IC50 (LS411N cells; LS411N, performed at Pharmaron): 0.183 µM
EC50 ([1]; ^+ SyBr assay was used): 0.0557 µM

Cn1cc(C(=O)Nc2cc(Cl)cc(NS(C)(=O)=O)c2)cc1-c1ncccc1OCC1CC1 [Example 584]
IC50 (NCI-H747 cells; [4]): > 10 µM
IC50 (LS411N cells; LS411N, performed at Pharmaron): 0.122 µM
EC50 ([1]; ^+ SyBr assay was used): 0.0421 µM

Cn1cc(C(=O)Nc2cc(Cl)cc(NS(C)(=O)=O)c2)cc1-c1ncc(N2CCCC2)cn1 [Example 520]
IC50 (NCI-H747 cells; [4]): > 10 µM
IC50 (LS411N cells; LS411N, performed at Pharmaron): 0.118 µM
EC50 ([1]; ^+ SyBr assay was used): 0.0402 µM

Cc1sc(C(=O)Nc2cc(Cl)cc(NS(C)(=O)=O)c2)cc1-c1ccc(F)cn1 [Example 35]
IC50 (NCI-H747 cells; [2]): > 10 µM
IC50 (LS411N cells; [3]): 0.0768 µM
EC50 ([1]; SyBr assay (marked ^+)): 0.0372 µM

Cc1cccnc1-c1cc(C(=O)Nc2cc(Cl)cc(NS(C)(=O)=O)c2)cn1CC(F)F [Example 143, N-(3-chloro-5-(methylsulfonamido)phenyl)-1-(2,2-difluoroethyl)-5-(3-methylpyridin-2-yl)-1H-pyrrole-3-carboxamide]
IC50 (NCI-H747 cells; [2]): 8.54 µM
IC50 (LS411N cells; [3]): 1.09 µM
EC50 ([1]; SyBr assay (marked ^+)): 0.516 µM

CCOc1ccc(-c2cc(C(=O)Nc3cc(Cl)cc(NS(C)(=O)=O)c3)cn2C)nc1 [Example 572]
IC50 (NCI-H747 cells; [4]): > 10 µM
IC50 (LS411N cells; LS411N, performed at Pharmaron): 0.144 µM
EC50 ([1]; ^+ SyBr assay was used): 0.0551 µM

COCc1ccc(-c2cc(C(=O)Nc3cc(Cl)cc(NS(C)(=O)=O)c3)cn2C)nc1 [Example 574]
IC50 (NCI-H747 cells; [4]): > 10 µM
IC50 (LS411N cells; LS411N, performed at Pharmaron): 0.0922 µM
EC50 ([1]; ^+ SyBr assay was used): 0.0395 µM

CCc1cn2cc(C(=O)Nc3cc(Cl)cc(NS(C)(=O)=O)c3)ccc2n1 [Example 132]
IC50 (NCI-H747 cells; [2]): > 10 µM
IC50 (LS411N cells; [3]): > 10 µM
EC50 ([1]; SyBr assay (marked ^+)): > 10 µM

CS(=O)(=O)Nc1cc(Cl)cc(NC(=O)c2cc(-c3ncccc3COc3cc(F)cc(F)c3)cs2)c1 [Example 228]
IC50 (NCI-H747 cells; [2]): > 10 µM
IC50 (LS411N cells; [3]): 0.117 µM
EC50 ([1]; SyBr assay (marked ^+)): 0.0483 µM

COc1ccc(-n2cc(C(=O)Nc3cc(Cl)cc(NS(C)(=O)=O)c3)cc2C)nc1 [Example 391]
IC50 (NCI-H747 cells; [2]): > 10 µM
IC50 (LS411N cells; [3]): 0.171 µM
EC50 ([1]; SyBr assay (marked ^+)): 0.063 µM

CS(=O)(=O)Nc1cc(Cl)cc(NC(=O)c2cnn(-c3c(F)cccc3OCc3cncc(F)c3)c2)c1 [Example 718]
IC50 (NCI-H747 cells; [4]): > 10 µM
IC50 (LS411N cells; LS411N, performed at Pharmaron): 0.114 µM
EC50 ([1]; ^+ SyBr assay was used): 0.137 µM

CNC(=O)c1sc(C(=O)Nc2cc(Cl)cc(NS(C)(=O)=O)c2)cc1-c1ncccc1OCc1ccccc1 [Example 212]
IC50 (NCI-H747 cells; [2]): > 10 µM
IC50 (LS411N cells; [3]): 0.202 µM
EC50 ([1]; SyBr assay (marked ^+)): 0.0326 µM

CCOc1ccc(-n2cc(C(=O)Nc3cc(Cl)cc(NS(C)(=O)=O)c3)cc2C)nc1 [Example 437]
IC50 (NCI-H747 cells; [4]): > 10 µM
IC50 (LS411N cells; LS411N, performed at Pharmaron): 0.123 µM
EC50 ([1]; ^+ SyBr assay was used): 0.0468 µM

Cc1cc(C(=O)Nc2cc(Cl)cc(NS(C)(=O)=O)c2)cn1-c1ccc(C(F)(F)F)cn1 [Example 443]
IC50 (NCI-H747 cells; [4]): 4.36 µM
IC50 (LS411N cells; LS411N, performed at Pharmaron): 0.353 µM
EC50 ([1]; ^+ SyBr assay was used): 0.096 µM

Cc1cc(C(=O)Nc2cc(Cl)cc(NS(C)(=O)=O)c2)cn1-c1ccc(N2CCC2)cn1 [Example 397]
IC50 (NCI-H747 cells; [4]): 6.94 µM
IC50 (LS411N cells; LS411N, performed at Pharmaron): 0.0465 µM
EC50 ([1]; ^+ SyBr assay was used): 0.0263 µM

CCOc1ccc(-c2csc(C(=O)Nc3cc(Cl)cc(NS(C)(=O)=O)c3)c2)nc1 [Example 339]
IC50 (NCI-H747 cells; [2]): 5.69 µM
IC50 (LS411N cells; [3]): 0.341 µM
EC50 ([1]; SyBr assay (marked ^+)): 0.0918 µM

CS(=O)(=O)Nc1cc(Cl)cc(NC(=O)c2cc(-c3ncccc3OCc3cncc(F)c3)cs2)c1 [Example 620, N-(3-chloro-5-methanesulfonamidophenyl)-4-{3-[(5-fluoropyridin-3-yl)methoxy]pyridin-2-yl}thiophene-2-carboxamide]
IC50 (NCI-H747 cells; [4]): > 10 µM
IC50 (LS411N cells; LS411N, performed at Pharmaron): 0.0264 µM
EC50 ([1]; ^+ SyBr assay was used): 0.0062 µM

CS(=O)(=O)Nc1cc(Cl)cc(NC(=O)c2cc(-c3ccccc3)c(CO)s2)c1 [Example 120, N-(3-chloro-5-(methylsulfonamido)phenyl)-5-(hydroxymethyl)-4-phenylthiophene-2-carboxamide]
IC50 (NCI-H747 cells; [2]): 6.98 µM
IC50 (LS411N cells; [3]): 1.07 µM
EC50 ([1]; SyBr assay (marked ^+)): 0.144 µM

CCOc1cnc(-c2cc(C(=O)Nc3cc(Cl)cc(NS(C)(=O)=O)c3)cn2C)nc1 [Example 172]
IC50 (NCI-H747 cells; [2]): 6.89 µM
IC50 (LS411N cells; [3]): 0.237 µM
EC50 ([1]; SyBr assay (marked ^+)): 0.135 µM

Cc1sc(C(=O)Nc2cc(Cl)cc(NS(C)(=O)=O)c2)cc1-c1ncccc1OCc1ccccc1 [Example 34]
IC50 (NCI-H747 cells; [2]): 8.67 µM
IC50 (LS411N cells; [3]): 0.0141 µM
EC50 ([1]; SyBr assay (marked ^+)): 0.013 µM

CCOc1cnc(-n2cc(C(=O)Nc3cc(Cl)cc(NS(C)(=O)=O)c3)cc2C)nc1 [Example 208]
IC50 (NCI-H747 cells; [2]): > 10 µM
IC50 (LS411N cells; [3]): 0.218 µM
EC50 ([1]; SyBr assay (marked ^+)): 0.125 µM

CS(=O)(=O)Nc1cc(Cl)cc(NC(=O)c2cc(-c3ncccc3Oc3ncccn3)cs2)c1 [Example 178, N-(3-chloro-5-(methylsulfonamido)phenyl)-4-(3-(pyrimidin-2-yloxy)pyridin-2-yl)thiophene-2-carboxamide]
IC50 (NCI-H747 cells; [2]): > 10 µM
IC50 (LS411N cells; [3]): 0.0811 µM
EC50 ([1]; SyBr assay (marked ^+)): 0.101 µM

CS(=O)(=O)Nc1cc(Br)cc(NC(=O)c2cc(-c3ccccc3O)cs2)c1 [Example 21]
IC50 (NCI-H747 cells; [2]): > 10 µM
IC50 (LS411N cells; [3]): 0.791 µM
EC50 ([1]; SyBr assay (marked ^+)): 0.26 µM

Cn1cc(C(=O)Nc2cc(Cl)cc(NS(C)(=O)=O)c2)cc1-c1ccc(N2CC(F)C2)cn1 [Example 539]
IC50 (NCI-H747 cells; [4]): 7.01 µM
IC50 (LS411N cells; LS411N, performed at Pharmaron): 0.0983 µM
EC50 ([1]; ^+ SyBr assay was used): 0.0162 µM

Cc1cc(C(=O)Nc2cc(Cl)cc(NS(C)(=O)=O)c2)cn1-c1ccc(N2CC3(COC3)C2)cn1 [Example 276]
IC50 (NCI-H747 cells; [2]): > 10 µM
IC50 (LS411N cells; [3]): 0.0617 µM
EC50 ([1]; SyBr assay (marked ^+)): 0.0642 µM

COCCOc1ccc(-n2cc(C(=O)Nc3cc(Cl)cc(NS(C)(=O)=O)c3)cc2C)nc1 [Example 442]
IC50 (NCI-H747 cells; [4]): > 10 µM
IC50 (LS411N cells; LS411N, performed at Pharmaron): 0.123 µM
EC50 ([1]; ^+ SyBr assay was used): 0.046 µM

CS(=O)(=O)Nc1cc(Br)cc(NC(=O)c2cnn(-c3ccccc3OCc3ccccc3)c2)c1 [Example 51]
IC50 (NCI-H747 cells; [2]): 6.47 µM
IC50 (LS411N cells; [3]): 0.259 µM
EC50 ([1]; SyBr assay (marked ^+)): 0.188 µM

Cc1cccnc1-c1nc(C(=O)Nc2cc(Br)cc(NS(C)(=O)=O)c2)cn1C [Example 96, N-(3-bromo-5-(methylsulfonamido)phenyl)-1-methyl-2-(3-methylpyridin-2-yl)-1H-imidazole-4-carboxamide]
IC50 (NCI-H747 cells; [2]): > 10 µM
IC50 (LS411N cells; [3]): > 10 µM
EC50 ([1]; SyBr assay (marked ^+)): 9.63 µM

Cc1cc(C(=O)Nc2cc(Cl)cc(NS(C)(=O)=O)c2)cn1-c1ccc(N2CC3CC3C2)cn1 (stereo not drawn) [Example 411]
IC50 (NCI-H747 cells; [4]): > 10 µM
IC50 (LS411N cells; LS411N, performed at Pharmaron): 0.142 µM
EC50 ([1]; ^+ SyBr assay was used): 0.0741 µM

CS(=O)(=O)Nc1cc(Br)cc(NC(=O)c2cc(-c3ccccn3)n(CC#N)c2)c1 [Example 95, N-(3-bromo-5-methanesulfonamidophenyl)-1-(cyanomethyl)-5-(pyridin-2-yl)-1H-pyrrole-3-carboxamide]
IC50 (NCI-H747 cells; NCI-H747, read-out: H747 (CRC-MSS) Antiproliferative IC50): 7.99 µM
IC50 (LS411N cells): 1.02 µM
EC50 ([1]; SyBr assay (marked ^+)): 0.179 µM

CS(=O)(=O)Nc1cc(Cl)cc(NC(=O)c2cnn(-c3ncc(F)cc3CCc3cccc(F)c3)c2)c1 [Example 251]
IC50 (NCI-H747 cells; [2]): > 10 µM
IC50 (LS411N cells; [3]): 0.432 µM
EC50 ([1]; SyBr assay (marked ^+)): > 10 µM

Cc1cc(C(=O)Nc2cc(Cl)cc(NS(C)(=O)=O)c2)cn1-c1ccc(N2CCC(F)(F)C2)cn1 [Example 396]
IC50 (NCI-H747 cells; [4]): > 10 µM
IC50 (LS411N cells; LS411N, performed at Pharmaron): 0.122 µM
EC50 ([1]; ^+ SyBr assay was used): 0.033 µM

CS(=O)(=O)Nc1cc(Cl)cc(NC(=O)c2cnn(-c3ccc(N4CC5CCC(C4)O5)cn3)c2)c1 [Example 191]
IC50 (NCI-H747 cells; [2]): > 10 µM
IC50 (LS411N cells; [3]): > 10 µM
EC50 ([1]; SyBr assay (marked ^+)): 0.432 µM

COc1cnc(-n2cc(C(=O)Nc3cc(Cl)cc(NS(C)(=O)=O)c3)cc2C)nc1 [Example 441]
IC50 (NCI-H747 cells; [4]): > 10 µM
IC50 (LS411N cells; LS411N, performed at Pharmaron): 0.13 µM
EC50 ([1]; ^+ SyBr assay was used): 0.123 µM

CS(=O)(=O)Nc1cc(Cl)cc(NC(=O)c2cnn(-c3ccccc3OCc3cccc(F)c3)c2)c1 [Example 210]
IC50 (NCI-H747 cells; [2]): > 10 µM
IC50 (LS411N cells; [3]): 0.111 µM
EC50 ([1]; SyBr assay (marked ^+)): 0.0772 µM
